Reference: US7858635B2 (priority 2005, dated 2010)
Like-named read-outs stand apart in the source and are kept apart here.

Columns and labels:
M1 muscarinic receptor = molecular target: T1, M1 muscarinic receptor (Homo sapiens, UniProt P11229); assay: Functional mobilization of intracellular calcium (FLIPR, Fluo-3), M1-CHO cells; assay type: cell-based; settings: for Emax: 100% efficacy is the maximum response obtained with the Carbachol control, read-out: M1 Efficacy
T1 construct: expressed in transfected cells; host or cells: CHO cells (M1-CHO, under zeocin and G418 selection)
T1 sequence (P11229 1-460): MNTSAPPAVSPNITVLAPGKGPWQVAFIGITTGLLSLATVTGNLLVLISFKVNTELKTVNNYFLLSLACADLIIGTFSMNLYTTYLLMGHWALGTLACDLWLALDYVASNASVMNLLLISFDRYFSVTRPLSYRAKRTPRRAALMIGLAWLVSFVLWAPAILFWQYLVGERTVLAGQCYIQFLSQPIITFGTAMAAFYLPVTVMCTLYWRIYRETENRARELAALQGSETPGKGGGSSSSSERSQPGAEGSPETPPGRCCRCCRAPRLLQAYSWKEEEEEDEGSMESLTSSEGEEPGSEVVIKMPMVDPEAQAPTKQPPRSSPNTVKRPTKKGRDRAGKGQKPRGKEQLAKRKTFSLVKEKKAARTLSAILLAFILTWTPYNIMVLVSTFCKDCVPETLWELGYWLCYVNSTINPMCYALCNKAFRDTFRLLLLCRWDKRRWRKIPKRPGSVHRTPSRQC
Procedure, shortened: (§1)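 Fluo-3 read-out, ex 488/em 540 nm, 60 sec on FLIPR 3. For agonist mode, compound added directly; for inhibition, 15 min compound pre-incubation before carbachol at EC80 (added as a 3× solution), or co-application. Buffer pH 7.4 with 1 mM probenecid; DMSO 0.5%.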

M4 muscarinic receptor = molecular target: T2, M4 muscarinic receptor (Homo sapiens, UniProt P08173); assay: Functional mobilization of intracellular calcium (FLIPR, Fluo-3), M4-CHO cells; assay type: cell-based; settings: for Emax: 100% efficacy is the maximum response obtained with the Carbachol control, read-out: M4 Efficacy
T2 construct: expressed in transfected cells; host or cells: CHO cells (M4-CHO, under puromycin, zeocin and blasticidin selection)
T2 sequence (P08173 1-479): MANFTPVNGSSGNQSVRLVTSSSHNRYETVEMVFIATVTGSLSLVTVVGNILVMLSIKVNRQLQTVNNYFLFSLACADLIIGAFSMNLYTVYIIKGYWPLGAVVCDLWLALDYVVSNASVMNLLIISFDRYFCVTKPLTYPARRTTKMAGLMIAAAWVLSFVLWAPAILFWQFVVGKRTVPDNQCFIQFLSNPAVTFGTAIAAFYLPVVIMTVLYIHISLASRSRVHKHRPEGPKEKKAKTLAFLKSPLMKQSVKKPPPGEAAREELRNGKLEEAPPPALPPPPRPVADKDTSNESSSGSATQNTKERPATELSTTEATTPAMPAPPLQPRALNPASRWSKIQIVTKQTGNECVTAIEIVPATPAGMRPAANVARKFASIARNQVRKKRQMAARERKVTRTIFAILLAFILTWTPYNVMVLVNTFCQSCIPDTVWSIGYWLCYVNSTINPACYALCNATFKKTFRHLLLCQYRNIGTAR
Procedure, shortened: as §1

[1] = compound nos. 1-454, M1-CHO cells, calcium mobilization
[2] = compound nos. 1-454, M4-CHO cells, calcium mobilization

Compound	Emax (M1 muscarinic receptor; compound nos. 1-454) [%]	M1 Activity (M1 muscarinic receptor; [1])	Emax (M4 muscarinic receptor; compound nos. 1-454) [%]	M4 Activity (M4 muscarinic receptor; [2])	Emax (M1 muscarinic receptor; compound nos. 455-509) [%]	M1 Activity (M1 muscarinic receptor; compounds 455-509)	Emax (M4 muscarinic receptor; compound nos. 455-509) [%]	M4 Activity (M4 muscarinic receptor; compounds 455-509)	M1 Activity (M1 muscarinic receptor; compound nos. 1-454)	M4 Activity (M4 muscarinic receptor; compound nos. 1-454)
O=C1Nc2ccccc2C12CCN(CC1CC3C=CC1C3)CC2 (stereo not shown) [compound 7]	65 to 85	+++ (activity was measured to be less than or equal to 0.7 μM)	> 70	++ (activity was measured to be between 0.1 μM and 4.0 μM)	–	–	–	–	–	–
CC(C)NC(=O)N1C2CCC1CC(N1CCC3(CC1)COc1ccc(F)cc13)C2 (stereo not shown) [compound 289]	< 65	+++ (activity was measured to be less than or equal to 0.7 μM)	< 55	+ (activity was measured to be greater than or equal to 4.0 μM)	–	–	–	–	–	–
CCOC(=O)N1CCC(N2CCC3(CC2)CN(C(=O)c2cccc(OC)c2)c2ccc(F)cc23)CC1 [compound 45]	> 85	+++ (activity was measured to be less than or equal to 0.7 μM)	55 to 70	+++ (activity was measured to be less than or equal to 0.1 μM)	–	–	–	–	–	–
CC(=O)N1CC2(CCN(C3CCN(c4cncc(C5CC5)n4)CC3)CC2)c2ccccc21 [compound 503]	–	–	–	–	< 25	+++ (activity was measured to be less than or equal to 2.0 μM)	< 25	++ (activity was measured to be between 2.0 μM and 5.0 μM)	–	–
CCOC(=O)N1CCC(N2CCC3(CC2)CN(C(=O)c2ccccn2)c2ccc(F)cc23)CC1 [compound 331]	< 65	++ (activity was measured to be between 0.7 μM and 3.0 μM)	< 55	+ (activity was measured to be greater than or equal to 4.0 μM)	–	–	–	–	–	–
Clc1ccc2c(c1)C1(CCN(CC3CCOCC3)CC1)CO2 [compound 415]	< 65	–	< 55	–	–	–	–	–	+ (activity was measured to be greater than or equal to 3.0 μM)	+ (activity was measured to be greater than or equal to 4.0 μM)
CC(=O)NC1CC2(CCN(C[C@@H]3C[C@H]4C=C[C@H]3C4)CC2)c2ccccc21 (stereo partly shown) [compound 408]	65 to 85	–	55 to 70	–	–	–	–	–	+++ (activity was measured to be less than or equal to 0.7 μM)	+++ (activity was measured to be less than or equal to 0.1 μM)
CC(=O)N1CC2(CCN(CC3CCN(C(=O)O[C@@H]4CCOC4)CC3)CC2)c2cc(C)ccc21 [compound 403]	65 to 85	–	< 55	–	–	–	–	–	+++ (activity was measured to be less than or equal to 0.7 μM)	+ (activity was measured to be greater than or equal to 4.0 μM)
O=C(O[C@H]1CCOC1)N1C2CCC1CC(N1CCC3(CCc4ccccc43)CC1)C2 (stereo partly shown) [compound 355]	65 to 85	++ (activity was measured to be between 0.7 μM and 3.0 μM)	55 to 70	++ (activity was measured to be between 0.1 μM and 4.0 μM)	–	–	–	–	–	–
Clc1ccc2c(c1)C1(CCN(C3CCCCCC3)CC1)CN2 [compound 333]	< 65	+ (activity was measured to be greater than or equal to 3.0 μM)	< 55	+ (activity was measured to be greater than or equal to 4.0 μM)	–	–	–	–	–	–
CN(C)C(=O)N1CC2(CCN(C3CC4CCC(C3)N4C(=O)O[C@@H]3CCOC3)CC2)c2cc(F)ccc21 (stereo partly shown) [compound 188]	< 65	+ (activity was measured to be greater than or equal to 3.0 μM)	55 to 70	+ (activity was measured to be greater than or equal to 4.0 μM)	–	–	–	–	–	–
O=C(OCC1CCCO1)N1C2CCC1CC(N1CCC3(CC1)COc1ccc(F)cc13)C2 (stereo not shown) [compound 363]	< 65	++ (activity was measured to be between 0.7 μM and 3.0 μM)	< 55	+ (activity was measured to be greater than or equal to 4.0 μM)	–	–	–	–	–	–
Clc1ccc2c(c1)C1(CCN(C3CC4CCC3C4)CC1)CN2 (stereo not shown) [compound 224]	65 to 85	+ (activity was measured to be greater than or equal to 3.0 μM)	< 55	+ (activity was measured to be greater than or equal to 4.0 μM)	–	–	–	–	–	–
O=C(C1CC1)N1CC2(CCN(C3CC4CCC(C3)N4C(=O)OC3CCC3)CC2)c2cc(F)ccc21 (stereo not shown) [compound 379]	65 to 85	–	55 to 70	–	–	–	–	–	+++ (activity was measured to be less than or equal to 0.7 μM)	++ (activity was measured to be between 0.1 μM and 4.0 μM)
CCOC(=O)N1C2CCC1CC(N1CCC3(CC1)CN(C(=O)c1cc(C)n(C)n1)c1ccc(F)cc13)C2 (stereo not shown) [compound 50]	> 85	+++ (activity was measured to be less than or equal to 0.7 μM)	> 70	++ (activity was measured to be between 0.1 μM and 4.0 μM)	–	–	–	–	–	–
c1ccc2c(c1)NCC21CCN(C2CC3CCC2C3)CC1 (stereo not shown) [compound 272]	65 to 85	+++ (activity was measured to be less than or equal to 0.7 μM)	> 70	+++ (activity was measured to be less than or equal to 0.1 μM)	–	–	–	–	–	–
CCOC(=O)N1CCC(N2CCC3(CC2)CN(C(=O)C(C)C)c2ccc(F)cc23)CC1 [compound 142]	65 to 85	+++ (activity was measured to be less than or equal to 0.7 μM)	> 70	+ (activity was measured to be greater than or equal to 4.0 μM)	–	–	–	–	–	–
CC(=O)N[C@H]1CC2(CCN(C3CCC(C)CC3)CC2)c2ccccc21 (stereo partly shown) [compound 280]	65 to 85	+ (activity was measured to be greater than or equal to 3.0 μM)	55 to 70	+ (activity was measured to be greater than or equal to 4.0 μM)	–	–	–	–	–	–
CS(=O)(=O)N1CC2(CCN(C3CC4CCC(C3)N4C(=O)OC3CCC3)CC2)c2cc(F)ccc21 (stereo not shown) [compound 122]	65 to 85	+++ (activity was measured to be less than or equal to 0.7 μM)	< 55	++ (activity was measured to be between 0.1 μM and 4.0 μM)	–	–	–	–	–	–
COc1ccc(F)cc1N1CCC(N2CCC3(CC2)CN(C(=O)N(C)C)c2ccc(F)cc23)CC1 [compound 443]	65 to 85	–	55 to 70	–	–	–	–	–	++ (activity was measured to be between 0.7 μM and 3.0 μM)	++ (activity was measured to be between 0.1 μM and 4.0 μM)
CCOC(=O)N1C2CCC1CC(N1CCC3(CC1)CN(C(=O)N(C)C)c1ccc(F)cc13)C2 (stereo not shown) [compound 362]	65 to 85	++ (activity was measured to be between 0.7 μM and 3.0 μM)	< 55	+ (activity was measured to be greater than or equal to 4.0 μM)	–	–	–	–	–	–
CCc1nsc(N2CCC(N3CCC4(CC3)C[C@H](N(C)C(C)=O)c3ccccc34)CC2)n1 [compound 484]	–	–	–	–	> 100	+++ (activity was measured to be less than or equal to 2.0 μM)	25 to 100	++ (activity was measured to be between 2.0 μM and 5.0 μM)	–	–
CC(=O)N[C@@H]1CC2(CCN([C@H]3C[C@@H]4CC[C@H]3C4)CC2)c2ccccc21 [compound 171]	> 85	++ (activity was measured to be between 0.7 μM and 3.0 μM)	55 to 70	+ (activity was measured to be greater than or equal to 4.0 μM)	–	–	–	–	–	–
CC(=O)N[C@H]1CC2(CCN(CC3CCCCC3)CC2)c2ccccc21 [compound 184]	> 85	++ (activity was measured to be between 0.7 μM and 3.0 μM)	55 to 70	+ (activity was measured to be greater than or equal to 4.0 μM)	–	–	–	–	–	–
O=C(OC1CCC1)N1C2CCC1CC(N1CCC3(CC1)COc1ccc(F)cc13)C2 (stereo not shown) [compound 123]	< 65	++ (activity was measured to be between 0.7 μM and 3.0 μM)	< 55	+ (activity was measured to be greater than or equal to 4.0 μM)	–	–	–	–	–	–
